Measured values from US6291463A, “1-(Benzothiazol-2-yl)-4-(1-phenylmethyl) piperazines: dopamine receptor subtype specific ligands” (Neurogen Corporation, priority 1999, dated 2001).
Where a name gives a salt, the structure may show the parent alone.

Assays:
[1] = target: D2 receptors (Chlorocebus aethiops, UniProt P52702); assay: D2 receptor binding (displacement of 3H-YM 09151-2); parameters: species or system African Green monkey; settings: COS cells with recombinant D2 receptors; 0.5 nM 3H-YM 09151-2; Table 2
Description: (§1) Assay for D2 and D4 Receptor Binding Activity
(§2) Pellets of COS cells containing recombinantly produced D2 or D4 receptors from African Green monkey were used for the assays. The sample is homogenized in 100 volumes (w/vol) of 0.05 M Tris HCl buffer at 4° C. and pH 7.4. The sample is then centrifuged at 30,000×g and resuspended and rehomogenized. The sample is then centrifuged as described and the final tissue sample is frozen until use. The tissue is resuspended 1:20 (wt/vol) in 0.05 M Tris HCl buffer containing 100 mM NaCl.
(§3) Incubations are carried out at […] and contain 0.4 ml of tissue sample, 0.5 nM ^3 H-YM 09151-2 (Nemonapride, cis-5-Chloro-2-methoxy-4-(methylamino)-N-(2-methyl-2-(phenylmethyl)-3-pyrroli-dinyl)benzamide) and the compound of interest in a total incubation of 1.0 ml. Nonspecific binding is defined as that binding found in the presence of 1 mM spiperone; without further additions, nonspecific binding is less than 20% of total binding.

[2] = target: D4 receptors; assay: D4 receptor binding (displacement of 3H-YM 09151-2); parameters: species or system African Green monkey; settings: COS cells with recombinant D4 receptors; 0.5 nM 3H-YM 09151-2; Table 2
Description: as §1, §2, §3

Chain of D2 receptors (P52702 whole entry): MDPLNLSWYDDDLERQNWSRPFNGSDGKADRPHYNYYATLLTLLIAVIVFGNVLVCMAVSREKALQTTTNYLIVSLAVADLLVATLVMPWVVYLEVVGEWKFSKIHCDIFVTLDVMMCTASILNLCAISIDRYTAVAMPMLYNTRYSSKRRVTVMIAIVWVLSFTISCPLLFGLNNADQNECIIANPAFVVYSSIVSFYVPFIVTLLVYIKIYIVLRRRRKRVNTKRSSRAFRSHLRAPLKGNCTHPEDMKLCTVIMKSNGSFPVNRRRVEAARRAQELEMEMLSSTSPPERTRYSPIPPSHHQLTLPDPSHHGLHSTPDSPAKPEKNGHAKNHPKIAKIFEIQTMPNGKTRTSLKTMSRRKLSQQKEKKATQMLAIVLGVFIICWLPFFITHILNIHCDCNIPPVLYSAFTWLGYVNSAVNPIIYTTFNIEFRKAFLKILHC

Ki [1] [nM]	Ki [2] [nM]	Structure (SMILES)
3510	76	c1ccc2cc(CN3CCN(c4nc5ccccc5s4)CC3)ccc2c1 [Compound 4A, 1-(benzothiazol-2-yl)-4-(1-[2-naphthyl]methyl)piperazine oxalate]
3510	25	Cc1ccc(CN2CCN(c3nc4ccccc4s3)CC2)cc1 [Compound 2A, 1-(benzothiazol-2-yl)-4-(1-[4-methylphenyl]methyl)piperazine oxalate]
> 4000	14	Clc1ccc(CN2CCN(c3nc4ccccc4s3)CC2)cc1 [Compound 1A, 1-(Benzothiazol-2-yl)-4-(1-[4-chlorophenyl]methyl)piperazine]
